Laboratory results: patent US6517836B1, “Nitrophenylaziridine compounds and their use as prodrugs” (Auckland Uniservices Limited, priority 1998, dated 2003)

What follows are compounds tested on human colon carcinoma NR− line (WIDR), wild-type (assay: Cytotoxicity, 18 h drug exposure, WiDr NR− line). Settings: Homo sapiens; WIDR cells, 18 h drug exposure; read-out: WiDr NR− IC50.
Format: cell-based
Text: (§1) The Chinese hamster fibroblast NR− line (T78-1) is a V79/4 Chinese hamster fibroblast transfected with an empty shuttle vector, while the NR+ line (T79-A3) is the corresponding NR transfectant. The human colon carcinoma NR− line (WIDR) is wild-type, while the NR+ line (WC14 10) is the corresponding NR transfectant. The human ovarian carcinoma NR− line (SKOV3) is wild-type, while the NR+ line (SC3.2) is the corresponding NR transfectant. EMT6 is a mouse mammary carcinoma line, and EN2A is the NR-transformed counterpart.
`O=C(NCCn1ccnc1)c1cc(N2CC2)c([N+](=O)[O-])cc1[N+](=O)[O-]` [Compound 7, 5-(aziridin-1-yl)-N-[2-(imidazol-1-yl)ethyl]-2,4-dinitrobenzamide] showed an IC50 of 47 µM. Work on `NC(=O)c1ccc([N+](=O)[O-])c(N2CC2)c1` [Compound 9, 3-(aziridin-1-yl)-4-nitrobenzamide] yielded an IC50 of 102 µM. `CS(=O)(=O)c1cc([N+](=O)[O-])c(N2CC2)cc1C(=O)NCC(O)CO` (stereo not drawn) [Compound 10, 5-(aziridin-1-yl)-N-(2,3-dihydroxypropyl)-2-(methylsulfonyl)-4-nitrobenzamide] gave an IC50 of 826 µM. With `NC(=O)c1cc(N2CC2)ccc1[N+](=O)[O-]` [Compound 11, 5-(aziridin-1-yl)-2-nitrobenzamide] the IC50 was 126 µM.

Each compound was assayed on Chinese hamster fibroblast NR− line (T78-1), V79/4 transfected with an empty shuttle vector (assay: Cytotoxicity, 18 h drug exposure, V79 NR− line (T78-1)). Settings: Cricetulus griseus; T78-1 cells, 18 h drug exposure; read-out: V-79 NR− IC50.
Format: cell-based
Text: as §1
`O=C(NCCn1ccnc1)c1cc(N2CC2)c([N+](=O)[O-])cc1[N+](=O)[O-]` [Compound 7, 5-(aziridin-1-yl)-N-[2-(imidazol-1-yl)ethyl]-2,4-dinitrobenzamide] showed an IC50 of 420 µM. With `NC(=O)c1ccc([N+](=O)[O-])c(N2CC2)c1` [Compound 9, 3-(aziridin-1-yl)-4-nitrobenzamide] the IC50 was 108 µM. Work on `CS(=O)(=O)c1cc([N+](=O)[O-])c(N2CC2)cc1C(=O)NCC(O)CO` (stereo not drawn) [Compound 10, 5-(aziridin-1-yl)-N-(2,3-dihydroxypropyl)-2-(methylsulfonyl)-4-nitrobenzamide] yielded an IC50 of 641 µM. `NC(=O)c1cc(N2CC2)ccc1[N+](=O)[O-]` [Compound 11, 5-(aziridin-1-yl)-2-nitrobenzamide] gave an IC50 of 121 µM.

What follows are compounds tested on human ovarian carcinoma NR− line (SKOV3), wild-type (assay: Cytotoxicity, 18 h drug exposure, SKOV3 NR− line). Settings: Homo sapiens, SK-OV-3; SKOV3 cells, 18 h drug exposure; read-out: SKOV NR− IC50.
Format: cell-based
Text: as §1
`O=C(NCCn1ccnc1)c1cc(N2CC2)c([N+](=O)[O-])cc1[N+](=O)[O-]` [Compound 7, 5-(aziridin-1-yl)-N-[2-(imidazol-1-yl)ethyl]-2,4-dinitrobenzamide] showed an IC50 of 61 µM. `NC(=O)c1ccc([N+](=O)[O-])c(N2CC2)c1` [Compound 9, 3-(aziridin-1-yl)-4-nitrobenzamide] was tested, and the IC50 was 93 µM. Work on `CS(=O)(=O)c1cc([N+](=O)[O-])c(N2CC2)cc1C(=O)NCC(O)CO` (stereo not drawn) [Compound 10, 5-(aziridin-1-yl)-N-(2,3-dihydroxypropyl)-2-(methylsulfonyl)-4-nitrobenzamide] yielded an IC50 of 920 µM. With `NC(=O)c1cc(N2CC2)ccc1[N+](=O)[O-]` [Compound 11, 5-(aziridin-1-yl)-2-nitrobenzamide] the IC50 was 129 µM.

The compounds below were run on human colon carcinoma NR+ line (WC14 10), NR transfectant (assay: Cytotoxicity, 18 h drug exposure, WiDr NR+ line (WC14 10)). Settings: Homo sapiens, WiDr; WC14 10 cells, 18 h drug exposure; read-out: WiDr NR+ IC50.
Format: cell-based
Text: as §1
Compound `O=C(NCCn1ccnc1)c1cc(N2CC2)c([N+](=O)[O-])cc1[N+](=O)[O-]` [Compound 7, 5-(aziridin-1-yl)-N-[2-(imidazol-1-yl)ethyl]-2,4-dinitrobenzamide] has an IC50 of 1 µM. `NC(=O)c1ccc([N+](=O)[O-])c(N2CC2)c1` [Compound 9, 3-(aziridin-1-yl)-4-nitrobenzamide] was tested, and the IC50 was 62 µM. `CS(=O)(=O)c1cc([N+](=O)[O-])c(N2CC2)cc1C(=O)NCC(O)CO` (stereo not drawn) [Compound 10, 5-(aziridin-1-yl)-N-(2,3-dihydroxypropyl)-2-(methylsulfonyl)-4-nitrobenzamide] showed an IC50 of 26 µM. For `NC(=O)c1cc(N2CC2)ccc1[N+](=O)[O-]` [Compound 11, 5-(aziridin-1-yl)-2-nitrobenzamide], the IC50 was 89 µM.

Same assay, conditions: WIDR vs WC14 10; inter-experiment average
In the case of `O=C(NCCn1ccnc1)c1cc(N2CC2)c([N+](=O)[O-])cc1[N+](=O)[O-]` [Compound 7, 5-(aziridin-1-yl)-N-[2-(imidazol-1-yl)ethyl]-2,4-dinitrobenzamide], the “WiDr ratio of IC50s” value is reported as 48. For `NC(=O)c1ccc([N+](=O)[O-])c(N2CC2)c1` [Compound 9, 3-(aziridin-1-yl)-4-nitrobenzamide], the “WiDr ratio of IC50s” value was 1.6. For `CS(=O)(=O)c1cc([N+](=O)[O-])c(N2CC2)cc1C(=O)NCC(O)CO` (stereo not drawn) [Compound 10, 5-(aziridin-1-yl)-N-(2,3-dihydroxypropyl)-2-(methylsulfonyl)-4-nitrobenzamide], the “WiDr ratio of IC50s” value was 33. With `NC(=O)c1cc(N2CC2)ccc1[N+](=O)[O-]` [Compound 11, 5-(aziridin-1-yl)-2-nitrobenzamide] the “WiDr ratio of IC50s” value was 1.4.

The compounds below were run on EMT6 mouse mammary carcinoma line (assay: Cytotoxicity, 18 h drug exposure, EMT6 NR− line). Settings: Mus musculus; EMT6 cells, 18 h drug exposure; read-out: EMT6 NR− IC50.
Format: cell-based
Text: as §1
`CS(=O)(=O)c1cc([N+](=O)[O-])c(N2CC2)cc1C(=O)NCC(O)CO` (stereo not drawn) [Compound 10, 5-(aziridin-1-yl)-N-(2,3-dihydroxypropyl)-2-(methylsulfonyl)-4-nitrobenzamide] showed an IC50 of 454 µM.

Each compound was assayed on EN2A, NR-transformed counterpart of EMT6 (assay: Cytotoxicity, 18 h drug exposure, EMT6 NR+ line (EN2A)). Settings: EMT6 vs EN2A; inter-experiment average.
Format: cell-based, mouse
Text: as §1
With `CS(=O)(=O)c1cc([N+](=O)[O-])c(N2CC2)cc1C(=O)NCC(O)CO` (stereo not drawn) [Compound 10, 5-(aziridin-1-yl)-N-(2,3-dihydroxypropyl)-2-(methylsulfonyl)-4-nitrobenzamide] the “EMT6 ratio of IC50s” value was 124.

Same assay, conditions: Mus musculus, EMT6; EN2A cells, 18 h drug exposure; read-out: EMT6 NR+ IC50
For `CS(=O)(=O)c1cc([N+](=O)[O-])c(N2CC2)cc1C(=O)NCC(O)CO` (stereo not drawn) [Compound 10, 5-(aziridin-1-yl)-N-(2,3-dihydroxypropyl)-2-(methylsulfonyl)-4-nitrobenzamide], the IC50 was 3.7 µM.

The compounds below were run on Chinese hamster fibroblast NR+ line (T79-A3), NR transfectant (assay: Cytotoxicity, 18 h drug exposure, V79 NR+ line (T79-A3)). Settings: Cricetulus griseus, Fibroblast; T79-A3 cells, 18 h drug exposure; read-out: V-79 NR+ IC50.
Format: cell-based
Text: as §1
`O=C(NCCn1ccnc1)c1cc(N2CC2)c([N+](=O)[O-])cc1[N+](=O)[O-]` [Compound 7, 5-(aziridin-1-yl)-N-[2-(imidazol-1-yl)ethyl]-2,4-dinitrobenzamide] was tested, and the IC50 was 0.39 µM. With `NC(=O)c1ccc([N+](=O)[O-])c(N2CC2)c1` [Compound 9, 3-(aziridin-1-yl)-4-nitrobenzamide] the IC50 was 62 µM. In the case of `CS(=O)(=O)c1cc([N+](=O)[O-])c(N2CC2)cc1C(=O)NCC(O)CO` (stereo not drawn) [Compound 10, 5-(aziridin-1-yl)-N-(2,3-dihydroxypropyl)-2-(methylsulfonyl)-4-nitrobenzamide], the IC50 is reported as 8.8 µM. `NC(=O)c1cc(N2CC2)ccc1[N+](=O)[O-]` [Compound 11, 5-(aziridin-1-yl)-2-nitrobenzamide] gave an IC50 of 81 µM.

Same assay, conditions: T78-1 vs T79-A3; inter-experiment average
`O=C(NCCn1ccnc1)c1cc(N2CC2)c([N+](=O)[O-])cc1[N+](=O)[O-]` [Compound 7, 5-(aziridin-1-yl)-N-[2-(imidazol-1-yl)ethyl]-2,4-dinitrobenzamide] was tested, and the “V-79 ratio of IC50s” value was 1170. `NC(=O)c1ccc([N+](=O)[O-])c(N2CC2)c1` [Compound 9, 3-(aziridin-1-yl)-4-nitrobenzamide] was tested, and the “V-79 ratio of IC50s” value was 1.4. With `CS(=O)(=O)c1cc([N+](=O)[O-])c(N2CC2)cc1C(=O)NCC(O)CO` (stereo not drawn) [Compound 10, 5-(aziridin-1-yl)-N-(2,3-dihydroxypropyl)-2-(methylsulfonyl)-4-nitrobenzamide] the “V-79 ratio of IC50s” value was 87. For `NC(=O)c1cc(N2CC2)ccc1[N+](=O)[O-]` [Compound 11, 5-(aziridin-1-yl)-2-nitrobenzamide], the “V-79 ratio of IC50s” value was 1.5.

What follows are compounds tested on human ovarian carcinoma NR+ line (SC3.2), NR transfectant (assay: Cytotoxicity, 18 h drug exposure, SKOV NR+ line (SC3.2)). Settings: Homo sapiens; SC3.2 cells, 18 h drug exposure; read-out: SKOV NR+ IC50.
Format: cell-based
Text: as §1
`O=C(NCCn1ccnc1)c1cc(N2CC2)c([N+](=O)[O-])cc1[N+](=O)[O-]` [Compound 7, 5-(aziridin-1-yl)-N-[2-(imidazol-1-yl)ethyl]-2,4-dinitrobenzamide] gave an IC50 of 0.58 µM. `NC(=O)c1ccc([N+](=O)[O-])c(N2CC2)c1` [Compound 9, 3-(aziridin-1-yl)-4-nitrobenzamide] showed an IC50 of 61 µM. For `CS(=O)(=O)c1cc([N+](=O)[O-])c(N2CC2)cc1C(=O)NCC(O)CO` (stereo not drawn) [Compound 10, 5-(aziridin-1-yl)-N-(2,3-dihydroxypropyl)-2-(methylsulfonyl)-4-nitrobenzamide], the IC50 was 6.2 µM. For `NC(=O)c1cc(N2CC2)ccc1[N+](=O)[O-]` [Compound 11, 5-(aziridin-1-yl)-2-nitrobenzamide], the IC50 was 102 µM.

Same assay, conditions: SKOV3 vs SC3.2; inter-experiment average
In the case of `O=C(NCCn1ccnc1)c1cc(N2CC2)c([N+](=O)[O-])cc1[N+](=O)[O-]` [Compound 7, 5-(aziridin-1-yl)-N-[2-(imidazol-1-yl)ethyl]-2,4-dinitrobenzamide], the “SKOV ratio of IC50s” value is reported as 104. In the case of `NC(=O)c1ccc([N+](=O)[O-])c(N2CC2)c1` [Compound 9, 3-(aziridin-1-yl)-4-nitrobenzamide], the “SKOV ratio of IC50s” value is reported as 1.6. For `CS(=O)(=O)c1cc([N+](=O)[O-])c(N2CC2)cc1C(=O)NCC(O)CO` (stereo not drawn) [Compound 10, 5-(aziridin-1-yl)-N-(2,3-dihydroxypropyl)-2-(methylsulfonyl)-4-nitrobenzamide], the “SKOV ratio of IC50s” value was 159. `NC(=O)c1cc(N2CC2)ccc1[N+](=O)[O-]` [Compound 11, 5-(aziridin-1-yl)-2-nitrobenzamide] was tested, and the “SKOV ratio of IC50s” value was 1.4.
